# Tested on: HCV genotype 1a replicon cell line
# Test: HCV Genotype 1a Replicon Assay
# Assay type: cell-based, hepatitis C virus
# Settings: Hepatitis C virus, Huh7.5 cell background, NS3-specific protease activity in lysates, 48 or 72 hours, read-out: Genotype 1a (pEC50 class) (converted)
# Description: Assay 2: HCV Genotype 1a Replicon Assay
# The HCV genotype 1a replicon cell line was obtained from Apath LLC (APC89; Huh7.5 cell background). This subgenomic replicon contains the N-terminus of the HCV core protein fused to the neomycin-resistance selectable marker. The EMCV IRES lies downstream and drives expression of the non-structural proteins NS3-NS5B. Compound potencies were determined using the NS3-specific protease activity in lysates as a measurement of compound inhibition of replicon levels.
# Cells were grown at 37° C. in a 5% CO2 humidified incubator in DMEM (Invitrogen) with 10% FBS (HyClone), 1×NEAA (Invitrogen), 1× Pen-Strep (Invitrogen), and 850 μg/mL G418 (Invitrogen). On day 1 of the assay, cells were plated at 15,000 cells/well in black 96-well tissue culture plates (Costar) in 200 μL media lacking G418. Four hours later, once the cells had adhered, the media was removed and replaced with media (no G418) containing dose-responses of test compounds. Compounds were initially diluted in DMSO and then diluted another 200× in media to bring the final DMSO concentration down to 0.5%. The cells were incubated with test compounds for 48 or 72 hours. At the end of the incubation period, media and compound were removed from the plates.
# To determine the NS3-specific protease activity in lysates, the cells were lysed at room temperature in 50 μL/well of 50 mM Hepes pH 7.5, 150 mM NaCl, 15% Glycerol, 0.15% Triton X-100, 10 mM DTT for 20 minutes with shaking. 50 μL of an NS3/4a protease-specific FRET substrate (Anaspec RET SI Cat#22991) was then added to the wells at a final concentration of 15 μM. The plates were incubated at 37° C. for 20 minutes, which corresponds to a timepoint at which the protease activity is still in the linear phase. Protease activity was determined by measuring fluorescence (Excitation: 340 nm; Emission: 509 nm).
# To analyze the data, the fluorescence was plotted vs. the compound concentration, and EC50 values were determined from a 4-parameter robust fit model using GraphPad Prism software.
row,SMILES,EC50 [nM]
1,COC(=O)N[C@H](C(=O)N1C[C@@H](C)C[C@H]1c1nc(-c2ccc(-c3cc(Cl)c(NC(=O)N4CCN(C5CCN(C(=O)C(C)(C)C)CC5)CC4)cc3OC(F)(F)F)cc2)c[nH]1)C(C)C [Example 4],0.1 to 1
2,COC(=O)N[C@H](C(=O)N1C[C@@H](OC)C[C@H]1c1nc(-c2ccc(-c3ccc(NC(=O)N4CCN(C5CCN(C(=O)C(C)(C)C)CC5)CC4)cc3OC(F)(F)F)cc2)c[nH]1)C(C)C [Example 5-1],0.1 to 1

# Same assay, conditions: Huh7.5 cell background, NS3-specific protease activity in lysates, 48 or 72 hours
row,SMILES,Genotype 1a (pEC50 class)
1,COC(=O)N[C@H](C(=O)N1C[C@@H](C)C[C@H]1c1nc(-c2ccc(-c3ccc(NC(=O)N4CCN(C5CCN(C(=O)OC(C)(C)C)CC5)CC4)cc3OC(F)(F)F)cc2)c(F)[nH]1)C(C)C [Example 2-28],D (D represents pEC50>10 (EC50<0.1 nM))
2,COC(=O)N[C@H](C(=O)N1C[C@@H](C)C[C@H]1c1nc(-c2ccc(-c3ccc(NC(=O)N4CCN(C5CCN(C(=O)C(C)(C)CO)CC5)CC4)cc3OC(F)(F)F)cc2)c[nH]1)C(C)C [Example 2-29],"C (C represents pEC50 between and 9 and about 10, (EC50 between 1 nM and 0.1 nM))"
3,COC(=O)N[C@H](C(=O)N1CCC[C@H]1c1nc(-c2ccc(-c3ccc(NC(=O)N4CCC(N5CCN(C(=O)OC(C)(C)C)CC5)CC4)cc3)cc2)c[nH]1)C(C)C [Example 3-1],A (A represents a pEC50 value between 6 and 8 (EC50 between 1 μM and 10 nM))
4,COC(=O)N[C@H](C(=O)N1CCC[C@H]1c1nc(-c2ccc(-c3ccc(NC(=O)N4CCC(N5CCN(C(=O)C6CC6)CC5)CC4)cc3)cc2)c[nH]1)C(C)C [Example 3-3],A (A represents a pEC50 value between 6 and 8 (EC50 between 1 μM and 10 nM))
5,CNC(=O)N1CCN(C2CCN(C(=O)Nc3ccc(-c4ccc(-c5c[nH]c([C@@H]6CCCN6C(=O)[C@@H](NC(=O)OC)C(C)C)n5)cc4)cc3)CC2)CC1 [Example 3-5],A (A represents a pEC50 value between 6 and 8 (EC50 between 1 μM and 10 nM))
6,COC(=O)N[C@H](C(=O)N1CCC[C@H]1c1nc(-c2ccc(-c3ccc(NC(=O)N4CCC(N5CCN(C(=O)OC)CC5)CC4)cc3)cc2)c[nH]1)C(C)C [Example 3-6],A (A represents a pEC50 value between 6 and 8 (EC50 between 1 μM and 10 nM))
7,COC(=O)N[C@H](C(=O)N1CCC[C@H]1c1nc(-c2ccc(-c3ccc(NC(=O)N4CCC(N5CCN(C(=O)OC(C)(C)C)[C@H](C)C5)CC4)cc3OC(F)(F)F)cc2)c[nH]1)C(C)C [Example 3-7],B (B represents pEC50 between 8 and 9 (EC50 between 1 and 10 nM))
8,COC(=O)N[C@H](C(=O)N1CCC[C@H]1c1nc(-c2ccc(-c3ccc(NC(=O)N4CCC(N5CCN(C(=O)[C@H]6CC6(C)C)[C@H](C)C5)CC4)cc3OC(F)(F)F)cc2)c[nH]1)C(C)C [Example 3-8],B (B represents pEC50 between 8 and 9 (EC50 between 1 and 10 nM))
9,COC(=O)N[C@H](C(=O)N1C[C@@H](C)C[C@H]1c1nc(-c2ccc(-c3cc(Cl)c(NC(=O)N4CCN(C5CCN(C(=O)[C@H]6CC6(C)C)CC5)CC4)cc3OC(F)(F)F)cc2)c[nH]1)C(C)C [Example 3],"C (C represents pEC50 between and 9 and about 10, (EC50 between 1 nM and 0.1 nM))"
10,COC(=O)N[C@H](C(=O)N1C[C@@H](C)C[C@H]1c1nc(-c2ccc(-c3cc(Cl)c(NC(=O)N4CCC(N5CCN(C(=O)OC(C)(C)C)[C@@H](C)C5)CC4)cc3OC(F)(F)F)cc2)c[nH]1)C(C)C [Example 4-1],A (A represents a pEC50 value between 6 and 8 (EC50 between 1 μM and 10 nM))
11,COC(=O)N[C@H](C(=O)N1C[C@@H](C)C[C@H]1c1nc(-c2ccc(-c3cc(Cl)c(NC(=O)N4CCC(N5CCN(C(=O)[C@H]6CC6(C)C)[C@@H](C)C5)CC4)cc3OC(F)(F)F)cc2)c[nH]1)C(C)C [Example 4-2],"C (C represents pEC50 between and 9 and about 10, (EC50 between 1 nM and 0.1 nM))"
12,COC(=O)N[C@H](C(=O)N1C[C@@H](C)C[C@H]1c1nc(-c2ccc(-c3cc(Cl)c(NC(=O)N4CCC(N5CCN(C(=O)C(C)(C)C)[C@@H](C)C5)CC4)cc3OC(F)(F)F)cc2)c[nH]1)C(C)C [Example 4-3],B (B represents pEC50 between 8 and 9 (EC50 between 1 and 10 nM))
13,CNC(=O)N1CCN(C2CCN(C(=O)Nc3cc(OC(F)(F)F)c(-c4ccc(-c5c[nH]c([C@@H]6C[C@H](C)CN6C(=O)[C@@H](NC(=O)OC)C(C)C)n5)cc4)cc3Cl)CC2)C[C@@H]1C [Example 4-4],B (B represents pEC50 between 8 and 9 (EC50 between 1 and 10 nM))
14,COC(=O)N[C@H](C(=O)N1C[C@@H](C)C[C@H]1c1nc(-c2ccc(-c3cc(Cl)c(NC(=O)N4CCC(N5CCN(C(=O)C6CC6)[C@@H](C)C5)CC4)cc3OC(F)(F)F)cc2)c[nH]1)C(C)C [Example 4-5],B (B represents pEC50 between 8 and 9 (EC50 between 1 and 10 nM))
15,COC(=O)N[C@H](C(=O)N1C[C@@H](C)C[C@H]1c1nc(-c2ccc(-c3cc(F)c(NC(=O)N4CCC(N5CCN(C(=O)OC(C)(C)C)CC5)CC4)cc3OC(F)(F)F)cc2)c[nH]1)C(C)C [Example 4-6],B (B represents pEC50 between 8 and 9 (EC50 between 1 and 10 nM))
16,COC(=O)N[C@H](C(=O)N1C[C@@H](C)C[C@H]1c1nc(-c2ccc(-c3cc(F)c(NC(=O)N4CCC(N5CCN(C(=O)C(C)(C)C)CC5)CC4)cc3OC(F)(F)F)cc2)c[nH]1)C(C)C [Example 4-7],"C (C represents pEC50 between and 9 and about 10, (EC50 between 1 nM and 0.1 nM))"
17,COC(=O)N[C@H](C(=O)N1C[C@@H](C)C[C@H]1c1nc(-c2ccc(-c3cc(F)c(NC(=O)N4CCC(N5CCN(C(=O)[C@H]6CC6(C)C)CC5)CC4)cc3OC(F)(F)F)cc2)c[nH]1)C(C)C [Example 4-8],"C (C represents pEC50 between and 9 and about 10, (EC50 between 1 nM and 0.1 nM))"
18,COC(=O)N[C@H](C(=O)N1C[C@@H](C)C[C@H]1c1nc(-c2ccc(-c3cc(F)c(NC(=O)N4CCC(N5CCN(C(=O)C6CC6)CC5)CC4)cc3OC(F)(F)F)cc2)c[nH]1)C(C)C [Example 4-9],"C (C represents pEC50 between and 9 and about 10, (EC50 between 1 nM and 0.1 nM))"
19,COC(=O)N[C@H](C(=O)N1C[C@@H](C)C[C@H]1c1nc(-c2ccc(-c3ccc(NC(=O)N4CCC(N5CCN(C(=O)C(C)(C)C)CC5)CC4)cc3OC(F)(F)F)cc2)c[nH]1)C(C)C [Example 4-10],"C (C represents pEC50 between and 9 and about 10, (EC50 between 1 nM and 0.1 nM))"
20,COC(=O)N[C@H](C(=O)N1C[C@@H](C)C[C@H]1c1nc(-c2ccc(-c3ccc(NC(=O)N4CCC(N5CCN(C(=O)[C@H]6CC6(C)C)CC5)CC4)cc3OC(F)(F)F)cc2)c[nH]1)C(C)C [Example 4-11],"C (C represents pEC50 between and 9 and about 10, (EC50 between 1 nM and 0.1 nM))"
21,COC(=O)N[C@H](C(=O)N1C[C@@H](C)C[C@H]1c1nc(-c2ccc(-c3cc(Cl)c(NC(=O)N4CCC(N5CCN(C(=O)OC(C)(C)C)CC5)CC4)cc3OC(F)(F)F)cc2)c[nH]1)C(C)C [Example 4-12],B (B represents pEC50 between 8 and 9 (EC50 between 1 and 10 nM))
22,COC(=O)N[C@H](C(=O)N1C[C@@H](C)C[C@H]1c1nc(-c2ccc(-c3cc(Cl)c(NC(=O)N4CCC(N5CCN(C(=O)C(C)(C)C)CC5)CC4)cc3OC(F)(F)F)cc2)c[nH]1)C(C)C [Example 4-13],B (B represents pEC50 between 8 and 9 (EC50 between 1 and 10 nM))
23,COC(=O)N[C@H](C(=O)N1C[C@@H](C)C[C@H]1c1nc(-c2ccc(-c3cc(Cl)c(NC(=O)N4CCC(N5CCN(C(=O)[C@H]6CC6(C)C)CC5)CC4)cc3OC(F)(F)F)cc2)c[nH]1)C(C)C [Example 4-14],"C (C represents pEC50 between and 9 and about 10, (EC50 between 1 nM and 0.1 nM))"
24,COC(=O)N[C@H](C(=O)N1C[C@@H](C)C[C@H]1c1nc(-c2ccc(-c3cc(Cl)c(NC(=O)N4CCC(N5CCN(C(=O)C6CC6)CC5)CC4)cc3OC(F)(F)F)cc2)c[nH]1)C(C)C [Example 4-15],B (B represents pEC50 between 8 and 9 (EC50 between 1 and 10 nM))
25,COC(=O)N[C@H](C(=O)N1C[C@@H](C)C[C@H]1c1nc(-c2ccc(-c3cc(Cl)c(NC(=O)N4CCC(N5CCN(C(=O)C(C)(C)C)C[C@H]5C)CC4)cc3OC(F)(F)F)cc2)c[nH]1)C(C)C [Example 4-16],"C (C represents pEC50 between and 9 and about 10, (EC50 between 1 nM and 0.1 nM))"
26,COC(=O)N[C@H](C(=O)N1C[C@@H](C)C[C@H]1c1nc(-c2ccc(-c3cc(Cl)c(NC(=O)N4CCC(N5CCN(C(=O)[C@H]6CC6(C)C)C[C@H]5C)CC4)cc3OC(F)(F)F)cc2)c[nH]1)C(C)C [Example 4-17],"C (C represents pEC50 between and 9 and about 10, (EC50 between 1 nM and 0.1 nM))"
